In patent US20060110450A1, “Bilayer tablet of telmisartan and amlodipine” (Boehringer Ingelheim International GmbH, priority 2004, published 2006):

Columns and labels:
[1] = Stability of amlodipine in contact with the basic telmisartan formulation; type: physicochemical; conditions: direct contact with excipients to be used in a telmisartan formulation (basic components, e.g. sodium hydroxide or meglumine)
Description: There are various types of fixed dose combination dosage forms conceivable but it cannot be predicted which of these dosage forms best combines product stability, pharmacological efficacy, and reliable manufacture. Generally, combinations of two active pharmaceutical ingredients could be formulated as oral solid or oral liquid dosage forms such as tablets, capsules, coated or sugar-coated tablets, granules, oral solutions, emulsions or suspensions, syrups, and lozenges. In view of experiences with liquid dosage forms of telmisartan, oral liquid dosage forms are not considered a preferred embodiment according to the present invention. An instant release oral solid dosage form containing two drugs could be prepared by either making a powder mixture or a co-granulate of the two active ingredients with the necessary excipients. However, for a combination of telmisartan and amlodipine, this approach turns out not to result in a dosage form with sufficient product stability. […] The ester bonds in the amlodipine molecule appear to be subject to hydrolysis when exposed to an alkaline milieu. […]

[2] = physiological pH range of the gastrointestinal tract between pH 1 to 7; cited from earlier work

Row | Compound | stability of amlodipine [1] | solubility in aqueous systems [2]
1 | 3-ethyl-5-methyl-2-(2-aminoethoxymethyl)-4-(2-chlorophenyl)-1,4-dihydro-6-methyl-3,5-pyridinedicarboxylate [amlodipine] | not stable enough | –
2 | CCCc1nc2c(C)cc(-c3nc4ccccc4n3C)cc2n1Cc1ccc(-c2ccccc2C(=O)O)cc1 [Telmisartan, 4′-[2-n-propyl-4-methyl-6-(1-methylbenzimidazol-2-yl)benzimidazol-1-ylmethyl]biphenyl-2-carboxylic acid] | – | very poor solubility
